Experiments:
[1] = test system: dairy cows with clinical mild or moderate mastitis; assay: Clinical field study: response thresholds to mechanical stimuli (hypersensitivity) in dairy cows with clinical mastitis; assay type: in vivo; conditions: adjunct to intramammary cefquinome, hind limbs, 6-8 examinations over 45 days, meloxicam groups vs antibiotics alone P<0.001
Method: Therefore, as already mentioned, dairy cows were studied to assess pain associated with moderate or mild mastitis. Based on the abovementioned study directed to the newly established method for the measurement of pain in food producing animals, a clinical field study was used to investigate, besides painful chronic conditions in cows with mild and moderate mastitis, the analgesic efficacy and long duration of action of meloxicam. In such clinical field study, meloxicam was administered only once as adjunct to intramammary antibiotic therapy and was compared to a second group where animals received re-treatments with meloxicam after 3 and 6 days. A third group received the antibiotic stand alone therapy. The distance between the hocks was measured as a proxy indicator of altered cow stance. Response thresholds to mechanical stimuli were measured on each hind limb using a modification of the method described by Nolan and others (A. Nolan, A. Livingston, R. Morris, and A. Waterman, Techniques for comparison of thermal and mechanical nociceptive stimuli in the sheep, J. Pharmacol. Methods 1987, 17, pp. 39-49). […] Response thresholds to mechanical stimuli were measured on each hind limb. […]

dairy cows = conditions: administered intramammarily in dairy cows; cited from earlier work

SMILES: CO/N=C(\C(=O)N[C@@H]1C(=O)N2C(C(=O)[O-])=C(C[n+]3cccc4c3CCCC4)CS[C@H]12)c1csc(N)n1 [antibiotics, cefquinome]
- threshold responses to mechanical stimuli (mechanical hyperalgesia) [1]: greater differences

SMILES: Cc1c(Nc2ncccc2C(=O)O)cccc1C(F)(F)F [flunixin meglumine]
- long lasting analgesic activity (dairy cows): did not achieve a long lasting analgesic activity

From patent US20050288280A1, “Meloxicam in veterinary medicine” (Boehringer Ingelheim Vetmedica GmbH, priority 2004, published 2005)
